Measurements as given in US7582655B2, “Antineoplastic compounds” (University of Saskatchewan, priority 2005, dated 2009).
Like-named read-outs stand apart in the source and are kept apart here.

What was measured:
[1] = test system: human squamous cell carcinomas HSC-2; assay: Cytotoxicity CC50, MTT assay, HSC-2
Experimental: (§1) In addition, the compounds were evaluated against human squamous cell carcinomas (HSC-2 and HSC-4) and human promyelocytic leukemia neoplasms (HL-60) and compared with normal cells, i.e. human gingival fibroblasts (HGF), human pulp cells (HPC) and human periodontal ligament fibroblasts (HPLF).
(§2) MTT stands for 3-(4,5-dimethylthiazol-2-yl)-2,5-diphenyltetrazolium bromide). The cells were incubated with varying concentrations of the compounds along with untreated cells for 24 h and the absorbance at 540 nm measured. In the case of the HL-60 assay, the trypan blue exclusion method was followed and cell viability was determined using a haemocytometer. The CC50 values were obtained from dose-response curves (Sakagami, H.; Satoh, K.; Ohata, H.; Takahashi, H.; Yoshida, H.; Iida, M.; Kuribayashi, N.; Sakagami, T.; Momose, K.; Takeda, M. Anticancer Res. 1996, 16, 2635-2644). The general methods used in culturing the cells employed in these cytotoxicity experiments have been described previously (Kawase, M.; Sakagami, H.; Motohashi, N.; Hauer, H.; Chatterjee, S. S.; Spengler, G.; Vigyikanne, A. V.; Molnár, A.; Molnár, J. In Vivo 2005, 19, 705-712; and Takeuchi, R.; Hoshijima, H.; Onuki, N.; Nagasaka, H.; Chowdhury, S. A.; Kawase, M.; Sakagami, H. Anticancer Res. 2005, 25, 4037-4042). In brief, the malignant cells were obtained from Professor Nagumo, Showa University, Japan. The HGF, HPC and HPLF cells were prepared from human periodontal tissue after obtaining informed consent according to the guidelines of Meikai University Ethics Committee, Japan (No. 0206). Since normal cells have a short lifespan, cells at the 3-7 population doubling time were used. With the exception of the HL-60 neoplasm, the cells were cultured in DMEM containing heat-inactivated FBS (10%) at 37° C. in a humidified carbon dioxide atmosphere and subcultured by trypsinization. The HL-60 cells were cultured in a similar fashion except that RPMI 1640 media was employed.

[2] = test system: human promyelocytic leukemia HL-60; assay: Cytotoxicity CC50, trypan blue exclusion, HL-60
Experimental: as §1, §2

[3] = test system: HGF, HPC and HPLF cells versus HSC-2, HSC-4 and HL-60 neoplasms; assay: Selectivity index, normal versus malignant cells; format: cell-based, human; settings: average CC50 of HGF, HPLF divided by average CC50 of HSC-2, HSC-4, HL-60
Experimental: as §1, §2

[4] = test system: human squamous cell carcinomas HSC-4; assay: Cytotoxicity CC50, MTT assay, HSC-4
Experimental: as §1, §2

[5] = test system: murine L-5178 lymphoma cells transfected with the human MDR1 gene; assay: MDR reversal, rhodamine 123 fluorescence activity ratio; settings: FAR >1 indicates MDR reversal; for FAR value 4 μg/ml: compound 4 μg/ml; for FAR value 40 μg/ml: compound 40 μg/ml
Experimental: A solution of the test compound (2 mg/ml, 10 μl) in dimethylsulfoxide was added to aliquots of the cell suspension and incubated at room temperature for 10 minutes. […] The cells were washed twice and resuspended in PBS (pH 7.4) after which the fluorescence was measured using a Beckton Dickinson FACScan instrument. The fluorescence of the cells was measured in treated MDR cells (F1), untreated MDR cells (F2), treated parental cells (F3) […] were obtained from the following equation, viz (F1/F2)/(F3/F4).

HCT 116 = assay: Human tumour cell line panel, colon cancer HCT 116; format: cell-based; settings: 48 h; read-out: Colon cancer cells, IC50(μM) HCT 116
Experimental: (§3) In addition, both 5-fluorouracil and melphalan were evaluated towards 57 cell lines. […] MG MID is the average of the potencies of the compound to approximately 50 neoplastic cell lines.

HCC 2998 = assay: Human tumour cell line panel, colon cancer HCC 2998; format: cell-based; settings: 48 h; read-out: Colon cancer cells, IC50(μM) HCC 2998
Experimental: as §3

HL 60 = assay: Human tumour cell line panel, leukemic HL 60; format: cell-based; settings: 48 h; read-out: Leukemic cells, IC50(μM) HL 60
Experimental: as §3

human pulp cells (HPC) = assay: in vitro
Experimental: as §1, §2

HCT 15 = assay: Human tumour cell line panel, colon cancer HCT 15; format: cell-based; settings: 48 h; read-out: Colon cancer cells, IC50(μM) HCT 15
Experimental: as §3

K 562 = assay: Human tumour cell line panel, leukemic K 562; format: cell-based; settings: 48 h; read-out: Leukemic cells, IC50(μM) K 562
Experimental: as §3

[6] = test system: human gingival fibroblasts (HGF); assay: in vitro
Experimental: as §1, §2

COLO 205 = assay: Human tumour cell line panel, colon cancer COLO 205; format: cell-based; settings: 48 h; read-out: Colon cancer cells, IC50(μM) COLO 205
Experimental: as §3

RPMI 8226 = assay: Human tumour cell line panel, leukemic RPMI 8226; format: cell-based; settings: 48 h; read-out: Leukemic cells, IC50(μM) RPMI 8226
Experimental: as §3

human tumour cell lines = assay: Panel of human tumour cell lines, all cell lines (mean graph midpoint); format: cell-based; settings: mean graph midpoint, average of 49 (38-59) human tumour cell lines, 48 h incubation; read-out: All cell lines IC50
Experimental: A number of compounds of the invention were further assessed against numerous human malignant cell lines. An average of 49 cell lines from nine different neoplastic diseases, namely leukemia, melanoma, non-small cell lung, colon, central nervous system, ovarian, renal, prostate, and breast cancers were employed.
as §3

[7] = test system: HSC-2, HSC-4 and HL-60 malignant cells; assay: Average CC50 for malignant cells
Experimental: as §1, §2

[8] = test system: human periodontal ligament fibroblasts (HPLF); assay: in vitro
Experimental: as §1, §2

SR = assay: Human tumour cell line panel, leukemic SR; format: cell-based; settings: 48 h; read-out: Leukemic cells, IC50(μM) SR
Experimental: as §3

KM 12 = assay: Human tumour cell line panel, colon cancer KM 12; format: cell-based; settings: read-out: Colon cancer cells, IC50(μM) KM 12
Experimental: as §3

SW 620 = assay: Human tumour cell line panel, colon cancer SW 620; format: cell-based; settings: 48 h; read-out: Colon cancer cells, IC50(μM) SW 620
Experimental: as §3

in vitro [9] = settings: human
Experimental: as §1, §2

in vitro [10] = settings: human; remark: listed apart in the source
Experimental: as §1, §2

in vitro [11] = settings: human; remark: listed apart in the source
Experimental: as §1, §2

[12] = Homo sapiens, HSC-2, 24 h, read-out: CC50(μM) HSC-2
[13] = Homo sapiens, HL-60, 24 h, read-out: CC50(μM) HL-60
[14] = Homo sapiens, HSC-4, 24 h, read-out: CC50(μM) HSC-4

| Compound | CC50 [1, 12] | CC50 [2, 13] | SI (selectivity index) [3] | CC50 [4, 14] | FAR value 4 μg/ml [5] | FAR value 40 μg/ml [5] | IC50 (HCT 116) | IC50 (HCC 2998) | IC50 (HL 60) | IC50 (HCT 15) | IC50 (K 562) | IC50 (COLO 205) | IC50 (RPMI 8226) | IC50 (human tumour cell lines) | IC50 (SR) | IC50 (SW 620) | also measured |
| --- | --- | --- | --- | --- | --- | --- | --- | --- | --- | --- | --- | --- | --- | --- | --- | --- | --- |
| Cc1ccc(C=C2CNCC(=Cc3ccc(C)cc3)C2=O)cc1 [Compound 1d, 3,5-bis(4-Methylphenylmethylene)-4-piperidone] | 3.9 µM | 4.5 µM | 29 | 9.3 µM | 3.26 | 4.03 |  |  |  |  |  |  |  |  |  |  |  |
| CCN(CC)CCOc1ccc(C(=O)N2CC(=Cc3ccc(C)cc3)C(=O)C(=Cc3ccc(C)cc3)C2)cc1.Cl [Compound 4d, 1-[4-(2-Diethylaminoethoxy)phenylcarbonyl]-3,5-bis(4-methylphenylmethylene)-4-piperidone hydrochloride] | 2.2 µM | 0.79 µM | 3.3 | 2.3 µM | 106 | 66.6 |  |  |  |  |  |  |  |  |  |  |  |
| COc1ccc(C(=O)N2CC(=Cc3ccccc3)C(=O)C(=Cc3ccccc3)C2)cc1 [Compound 2b, 1-(4-Methoxybenzoyl)-3,5-bis(phenylmethylene)-4-piperidone] |  |  |  |  |  |  |  |  |  |  |  |  |  |  |  |  | melting point: 177 to 178 °C |
| O=C1C(=Cc2ccccc2)CNCC1=Cc1ccccc1 [Compound 1a] |  |  |  |  | 1.58 | 2.00 | 0.182 µM | 2 µM | 0.363 µM | 0.631 µM | 0.49 µM | 1.55 µM | 0.275 µM | 1.62 µM | 0.209 µM | 0.575 µM | CC50 [1]: 2.2 µM; CC50 [2]: 1.5 µM; CC50 (human pulp cells (HPC)): 38 µM; CC50 [6]: 20 µM; CC50 [4]: 4.4 µM; CC50(μM) ave [7]: 2.7 µM; CC50 [8]: 24 µM; IC50 (KM 12; 48 h): 0.794 µM |
| O=C1C(=Cc2ccccc2)CN(C(=O)c2ccccc2)CC1=Cc1ccccc1 [Compound 2a, 1-Benzoyl-3,5-bis(phenylmethylene)-4-piperidone] |  |  |  |  |  |  |  |  |  |  |  |  |  |  |  |  | melting point: 165 to 166 °C |
| CCN(CC)CCOc1ccc(C(=O)N2CC(=Cc3ccc([N+](=O)[O-])cc3)C(=O)C(=Cc3ccc([N+](=O)[O-])cc3)C2)cc1.Cl [Compound 4c, 1-[4-(2-Diethylaminoethoxy)phenylcarbonyl]-3,5-bis(4-nitrophenylmethylene)-4-piperidone hydrochloride] | 0.98 µM | 0.26 µM | 6.6 | 1.1 µM | 77.5 | 14.1 |  |  |  |  |  |  |  |  |  |  |  |
| CCN(CC)CCOc1ccc(C(=O)N2CC(=Cc3ccc(Cl)cc3)C(=O)C(=Cc3ccc(Cl)cc3)C2)cc1.Cl [Compound 4b, 3,5-bis(4-Chlorophenylmethylene)-1-[4-(2-diethylaminoethoxy)phenylcarbonyl]-4-piperidone hydrochloride] | 160 µM | 46 µM | >4.3 | 34 µM | 118 | 99.7 |  |  |  |  |  |  |  |  |  |  | CC50 at 24 h (in vitro [9]): > 400 µM; CC50 at 24 h (in vitro [10]): 230 µM; CC50 at 24 h (in vitro [11]): > 400 µM |
| CC[N+](C)(CC)CCOc1ccc(C(=O)N2CC(=Cc3ccc(C)cc3)C(=O)C(=Cc3ccc(C)cc3)C2)cc1.[I-] [Compound 7d, 1-[4-(2-Diethylaminoethoxy)phenylcarbonyl]-3,5-bis(4-methylphenylmethylene)-4-piperidone methoiodide] |  |  |  |  | 1.93 | 114 | 14.1 µM | 6.17 µM | 11.8 µM | 9.33 µM | 1.35 µM | 8.91 µM | 1.26 µM | 7.76 µM | 22.9 µM | 10.5 µM | CC50 [1]: 17 µM; CC50 [2]: 16 µM; CC50 (human pulp cells (HPC)): 29 µM; CC50 [6]: 34 µM; CC50 [4]: 17 µM; CC50(μM) ave [7]: 17 µM; CC50 [8]: 8.3 µM; IC50 (KM 12; 48 h): 9.33 µM |
| CCN(CC)CCOc1ccc(C(=O)O)cc1.Cl |  |  |  |  |  |  |  |  |  |  |  |  |  |  |  |  | melting point: 170 to 172 °C |
| CC[N+](C)(CC)CCOc1ccc(C(=O)N2CC(=Cc3ccccc3)C(=O)C(=Cc3ccccc3)C2)cc1.[I-] [Compound 7a, 1-[4-(2-Diethylaminoethoxy)phenylcarbonyl]-3,5-bis(phenylmethylene)-4-piperidone methoiodide] |  |  |  |  | 1.37 | 1.05 | > 50.1 µM | 28.2 µM | > 50.1 µM | > 50.1 µM | 43.7 µM | 20.4 µM | 17.4 µM | > 41.7 µM | 38 µM | 30.2 µM | CC50 [1]: 130 µM; CC50 [2]: 82 µM; CC50 (human pulp cells (HPC)): 170 µM; CC50 [6]: 160 µM; CC50 [4]: 82 µM; CC50(μM) ave [7]: 98 µM; CC50 [8]: 79 µM; IC50 (KM 12; 48 h): 43.7 µM |
| 1-[4-(2-Dimethylaminoethoxy)phenylcarbonyl]-3,5-bis(4-methylphenyl-methylene)-4-piperidone hydrochloride hemihydrate [Compound 3d] |  |  |  |  |  |  | 1.38 µM | 0.229 µM | 1.32 µM | 0.912 µM | 1.82 µM | 1.02 µM | 0.224 µM | 1.15 µM | 0.479 µM | 0.562 µM | CC50 ([1]; read-out: CC50(μM) HSC-2, 24 h, MTT, average of two determinations): 1.4 µM; CC50 ([2]; read-out: CC50(μM) HL-60, 24 h, trypan blue exclusion, average of two determinations): 0.85 µM; CC50 (human pulp cells (HPC); read-out: CC50(μM) HPC, normal cells, 24 h, MTT): 7.2 µM; CC50 ([6]; read-out: CC50(μM) HGF, normal cells, 24 h, MTT): 7.9 µM; CC50 ([4]; read-out: CC50(μM) HSC-4, 24 h, MTT, average of two determinations): 2.1 µM; CC50(μM) ave ([7]; average CC50 for HSC-2, HSC-4 and HL-60 malignant cells): 1.5 µM; CC50 ([8]; read-out: CC50(μM) HPLF, normal cells, 24 h, MTT): 3.4 µM; IC50 (KM 12): 0.776 µM |
